Assay [1] has as its system class III PI3K Vps34. The assay can be described thus: Time-lapse confocal imaging of endosomal markers after Vps34 inhibition. To be noted: Cos-1 cells, Vps34-IN1 treatment.
Excerpt: Cells were imaged with an IX-83 microscope (Olympus, Tokyo, Japan) equipped with a BioPoint MAC6000 filter and shutter control unit (Ludl Electronic Products, Hawthorne, NY, USA), an automated XY-stage (Chuo Precision Industrial, Tokyo, Japan), an sDISK spinning disk confocal microscope (Andor Technology, Belfast, UK), and a Rolera EM-C^2 electron multiplying cooled charge-coupled device camera (QImaging, Surrey, BC, Canada). For epifluorescence microscopy, cells were illuminated with a SOLA Light Engine (Lumencor, Beaverton, OR, USA) and the following excitation and emission filters were used: FF02-438/24 and FF01-483/32 (Semrock, Rochester, NY, USA) for CFP; BP470-490 and BP510-550 (Olympus) for FITC; FF02-438/24 and FF01-542/27 for FRET; and BP520-550 and BA580IF (Olympus) for Alexa Fluor 594 and mRFP. For spinning-disk confocal imaging, cells were illuminated with a four-line (405, 488, 561, and 633 nm) laser module (Spectral Applied Research, Hamilton, ON, Canada) and the following emission filters were used: FF01-483/32 for CFP, FF01-542/27 for FRET, and BA580IF for TagRFP. Typical exposure times for 2×2 binning were 0.3 s. […]
Twenty-four hours after transfection, the cells were subjected to time-lapse confocal microscopy. […] P<0.0001 compared with before treatment, as calculated by repeated-measures ANOVA.
The subject of assay [2] is Ras-PI3K complex. The assay is classed as cell-based. To be noted: Cos-1 cells, VN-H-Ras G12V, time-lapse confocal after Vps34-IN1; n=12. As to the method: Imaging of BiFC and FRET, and their data analysis were performed essentially as described previously ([Fujioka et al., 2013]; [Ohba et al., 2003]; [Tsutsumi et al., 2009]). In brief, cells plated on a collagen-coated, 35-mm-diameter glass-base dish were transfected with expression vectors. After 24 hours, cells were serum-starved in phenol red-free DMEM/F12 (Thermo Fisher Scientific) for 4 hours and placed in a stage-top incubation chamber (Live Cell Instrument, Soul, Korea) that was maintained at 37°C. Beginning at 10 min, cells were stimulated with 100 ng/ml EGF. BiFC images were acquired using a spinning disk mode, whereas FRET images were obtained using epifluorescence mode. To represent FRET efficacy, the FRET/CFP emission ratio was calculated as the quotient of background-subtracted FRET and CFP images. To stabilize jittery image stacks of time-lapse data set, ‘Image Stabilizer’ plug-in of ImageJ (https://imagej.nih.gov/ij) was used. MetaMorph software converts image stacks of time-lapse data set into one QuickTime movie.
Vesicles positive for a BiFC signal (from Ras-PI3K complex) or TagRFP (EEA-1) were extracted with the use of the ‘Top Hat’ module of MetaMorph software, and colocalization of the Ras-PI3K complex with EEA-1 was quantified with the use of the ‘measure colocalization’ function of the software.

Structures are written as SMILES.

For `CC(C)(O)CNc1ncc(-c2ccnc(Nc3ccnc(Cl)c3)n2)c(CC2CC2)n1` [Vps34-IN1], in assay [1], the “Endosomal localization of CFP-tagged Rab5” value was “accumulated in the endosome” and the “Fluorescence signal in endosomes of RFP-tagged EEA-1” value is recorded as “dramatically dispersed”. Also, the “Amount of the Ras-PI3K complex in the endosome (BiFC)” value in assay [2] is listed as “partially, but significantly reduced”.

The values above are taken from PMC11926411 (Cell Structure and Function, 2019).
